Like-named read-outs stand apart in the source and are kept apart here.
Tests used:
[1] = tested on: X-linked ichthyosis with severe dry skin; assay: Topical treatment of X-linked ichthyosis / severe dry skin, clinical evaluation; type: in vivo; settings: Homo sapiens, read-out: improvement in contrast to untreated or vehicle control, clinical evaluation
Source text: For example, human subjects having severe dry skin or ichthyosis, topically applied 1%-5% N-(phosphonomethyl)-glycine creams to lesions for 2 to 3 weeks. After 2 to 3 weeks of topical application, the thick and scaly skin disappeared and the skin became smooth and normal in appearance. Clinical evaluation was judged to be 90% to 100% improvement compared to the untreated condition or when using a vehicle control.
(§1) The present invention will now be described in more detail with reference to the following non-limiting examples. In the initial tests for comparative studies, a control vehicle was always included. It was discovered that all the vehicle controls gave the same results as that of the untreated skin sites; no detectable effects of the controls have been found as judged by clinical evaluation.
(§2) For subjective disorders such as pain, itch or the like, the therapeutic effects were evaluated or judged by the subjects or patients; for example, if the pain or itch had disappeared within hours or days. For other detectable symptoms or syndromes, the therapeutic effects or improvements were evaluated or judged by medical professionals.
N-(phosphonomethyl)-glycine (5 g) was suspended in water (30 ml) and propylene glycol (10 ml), and concentrated ammonium hydroxide (2 ml) was added with stirring. The suspension became a clear solution, and was mixed with hydrophilic ointment (oil-in-water emulsion, 53 g). The white cream thus formulated had pH 3.8 and contained 5% N-(phosphonomethyl)-glycine. A subject who had X-linked ichthyosis with severe dry skin, having thick and rough skin with adherent scales, topically applied the above 5% N-(phosphonomethyl)-glycine cream to an involved skin site twice daily for two weeks. After one week of topical application, the adherent scales disappeared, and the skin became smooth and had 50% improvement in contrast to the untreated or vehicle control as judged by clinical evaluation. After two weeks of topical application, the treated skin became normal in appearance, and had 100% improvement in contrast to the untreated or vehicle control as judged by clinical evaluation.
A subject who had X-linked ichthyosis with severe dry skin, having thick and rough skin with adherent scales, topically applied the above 5% N-(phosphonomethyl)imino-diacetic acid cream to an involved skin site twice daily for two weeks. After one week of topical application, most adherent scales disappeared and the skin had 50% improvement in contrast to the untreated or vehicle control as judged by clinical evaluation. After two weeks of topical application, the scales disappeared completely and the treated skin became smooth, and had 90% improvement in contrast to the untreated or vehicle control as judged by clinical evaluation.
A subject who had X-linked ichthyosis with severe dry skin, having thick and rough skin with adherent scales, topically applied the above 5% N-(phosphonomethyl)-L-tyrosine cream to an involved skin site twice daily for 12 days. After 12 days of topical application, most adherent scales disappeared and the skin became smooth, and had 75% improvement in contrast to the untreated or vehicle control as judged by clinical evaluation.
A subject who had X-linked ichthyosis having thick and rough skin with adherent scales, topically applied the 5% N-(phosphonomethyl)-DL-asparagine cream to an involved skin site twice daily for three weeks. After one week of topical application, most adherent scales disappeared and the treated site appeared smooth. The skin had 75% improvement in contrast to the untreated or vehicle control as judged by clinical evaluation. After three weeks of topical application, the scales disappeared completely and the treated site felt smooth and normal in appearance. The skin had 100% improvement in contrast to the untreated or vehicle control as judged by clinical evaluation. […]

chronic plaque psoriasis = assay: Topical treatment of chronic plaque psoriasis lesion, clinical evaluation; type: in vivo; settings: Homo sapiens, read-out: improvement in contrast to untreated or vehicle control, clinical evaluation
Method: as §1, §2
(§3) A subject had chronic plaque psoriasis with erythema, moderately thick and silvery scales. The subject topically applied twice daily the above white cream containing 5% N-(phosphonomethyl)-glycine ethyl ester to one psoriatic lesion for two weeks. At the end of two weeks, the erythema and silvery scales improved substantially, and the treated skin had 50% improvement in contrast to the untreated or vehicle control as judged by clinical evaluation.
as §3, with “10% N-(phosphonomethyl)-L-proline” for “5% N-(phosphonomethyl)-glycine ethyl ester”, “improved very” for “improved”, “75%” for “50%”
as §3, with “N-(phosphonomethyl)-glycine propyl” for “N-(phosphonomethyl)-glycine ethyl”, “improved very” for “improved”, “had 75%” for “had 50%”
as §3, with “N-(phosphonomethyl)-glycine isopropyl” for “N-(phosphonomethyl)-glycine ethyl”, “for a week.” for “for two weeks.”, “of one week,” for “of two weeks,”
as §3, with “8% N-(phosphonomethyl)-glycinamide” for “5% N-(phosphonomethyl)-glycine ethyl ester”, “three” for “two”, “disappeared almost completely,” for “improved substantially,”, “90%” for “50%”
as §3, with “N-(phosphonomethyl)-L-tyrosine” for “N-(phosphonomethyl)-glycine”, “noticeably” for “substantially,”, “25%” for “50%”
A subject had chronic plaque psoriasis with erythema, moderately thick and silvery scales. The subject topically applied twice daily the above white cream containing 10% N-(phosphonomethyl)-D-4-hydroxyphenylglycine to one psoriatic lesion for two weeks. […]

itchy eczema = assay: Topical relief of itch in itchy eczema, judged by subject; type: in vivo, human; settings: for therapeutic evaluation, effective for immediate relief of itch: single topical application
Method: as §1, §2
A subject, having itchy eczema on their right thigh, topically applied the above 8% N-(phosphonomethyl)-L-proline ethyl ester cream. […] Therapeutic evaluation was judged to be 100% effective in contrast to the untreated or vehicle control for immediate relief of itch.
A subject, having itchy eczema on their left leg, topically applied 7% N-(phosphonomethyl)-creatine cream prepared according to Example 17. […] Therapeutic evaluation was judged to be 100% effective in contrast to the untreated or vehicle control for immediate relief of itch.
A subject, having itchy eczema on their left thigh, topically applied the above 10% N-(phosphonomethyl)-glutamine. […] Therapeutic evaluation was judged to be 100% effective in contrast to the untreated or vehicle control for immediate relief of itch.

hyperpigmented dark skin = assay: Topical skin lightening of hyperpigmented dark skin, clinical evaluation; type: in vivo, human
Method: as §1, §2
A subject who had hyperpigmented dark skin, topically applied 5% N-(phosphonomethyl)-DL-asparagine cream prepared according to Example 7 to an involved skin site twice daily for four weeks. […] The treated site was 25% lighter in skin color in contrast to the untreated or vehicle control as judged by clinical evaluation. After four weeks of topical application, the treated site had substantial reduction in skin pigmentation. The treated site was 50% lighter in contrast to the untreated or vehicle control in skin color as judged by clinical evaluation.
A subject who had hyperpigmented dark skin, topically applied the above 5% N-(phosphonomethyl)-DL-asparagine solution to an involved skin site once every other day with occlusion for ten days. […] The treated site was 25% lighter in skin color as judged by clinical evaluation. After ten days of topical application, the treated site had substantial reduction in skin pigmentation. The treated site was 50% lighter in skin color in contrast to the untreated or vehicle control as judged by clinical evaluation.
(§4) A subject who had hyperpigmented dark skin, topically applied the above 5% N-(phosphonomethyl)-creatine solution to an involved skin site once every other day with occlusion for two weeks. […] The treated site was 25% lighter in skin color in contrast to the untreated or vehicle control as judged by clinical evaluation. After two weeks of topical application, the treated site had very substantial reduction in skin pigmentation. The treated site was 75% lighter in skin color in contrast to the untreated or vehicle control as judged by clinical evaluation.
as §4, with “N-(phosphonomethyl)-glycinamide” for “N-(phosphonomethyl)-creatine”, “had” for “had very”, “50%” for “75%”
A subject who had hyperpigmented dark skin, topically applied the above 5% N-(phosphonomethyl)-L-glutamine solution to an involved skin site once every other day with occlusion for two weeks. After two weeks of topical application, the treated site had substantial reduction in skin pigmentation. The treated site had 50% lighter in skin color in contrast to the untreated or vehicle control as judged by clinical evaluation.

[2] = 168 h, 5% cream twice daily, after one week
[3] = 5% solution once every other day with occlusion, after two weeks
[4] = 336 h, 5% cream twice daily, end of two weeks
[5] = 5% solution once every other day with occlusion, after seven days

O=C(O)CN(CC(=O)O)CP(=O)(O)O [N-(phosphonomethyl)imino-diacetic acid] was tested, and the inhibition in vivo at 5 % ([1]; 168 h) was 50% and the inhibition in vivo at 5 % ([1]; 336 h) was 90%.

With O=C(O)CNCP(=O)(O)O [N-(phosphonomethyl)-glycine] the inhibition in vivo at 5 % [1, 2] was 50% and the inhibition in vivo at 5 % ([1]; 336 h, 5% cream twice daily, after two weeks) was 100%.

Molecule O=C(O)[C@@H]1CCCN1CP(=O)(O)O [N-(phosphonomethyl)-L-proline] has an inhibition in vivo at 10 % (chronic plaque psoriasis; 336 h) of 75%.

CCCOC(=O)CNCP(=O)(O)O [N-(phosphonomethyl)-glycine propyl ester] gave an inhibition in vivo at 5 % (chronic plaque psoriasis; 336 h) of 75%.

CCOC(=O)CNCP(=O)(O)O [N-(phosphonomethyl)-glycine ethyl ester] was tested, and the inhibition in vivo at 5 % (chronic plaque psoriasis; 336 h) was 50%.

CCOC(=O)[C@@H]1CCCN1CP(=O)(O)O [N-(phosphonomethyl)-L-proline ethyl ester] was tested, and the “time the treated skin did not itch after application” value (“time the treated skin did not itch” for short) (itchy eczema; 8% cream) was 8 h, the “time until itch disappeared after topical application” value (shortened to “time until itch disappeared”) (itchy eczema; 8% cream) was “within a few minutes” and the “therapeutic evaluation, effective for immediate relief of itch” value (“therapeutic evaluation, effective” for short) (itchy eczema; 8% cream) was 100%.

With NC(=O)CC[C@H](NCP(=O)(O)O)C(=O)O [N-(phosphonomethyl)-L-glutamine] the “time the treated skin did not itch” value (itchy eczema; 10% cream) was 8 h, the “time until itch disappeared” value (itchy eczema; 10% cream) was “within a few minutes” and the “therapeutic evaluation, effective” value (itchy eczema; 10% cream) was 100%. The “treated site lighter in skin color, clinical evaluation” value (“treated site lighter in skin color” below) (hyperpigmented dark skin; [3]) was 50%, the inhibition in vivo at 5 % ([1]; 336 h, 5% solution once every other day (occlusion not stated), after two weeks) was 75% and the inhibition in vivo at 5 % ([1]; 504 h, 5% solution once every other day (occlusion not stated), after three weeks) was 100%.

CC(C)OC(=O)CNCP(=O)(O)O [N-(phosphonomethyl)-glycine isopropyl ester] was tested, and the inhibition in vivo at 5 % (chronic plaque psoriasis; 168 h) was 50%.

CCOC(=O)[C@H](Cc1ccc(O)cc1)NCP(=O)(O)O [N-(phosphonomethyl)-L-tyrosine ethyl ester] gave an inhibition in vivo at 5 % (chronic plaque psoriasis; [4]) of 25% and an inhibition in vivo at 5 % [1, 2] of 25%.

In the case of NC(=O)CC(NCP(=O)(O)O)C(=O)O (racemic) [N-(phosphonomethyl)-DL-asparagine], the “treated site lighter in skin color” value (hyperpigmented dark skin; 5% cream twice daily, after four weeks) is reported as 50%, the “treated site lighter in skin color” value (hyperpigmented dark skin; 5% cream twice daily, after two weeks) is reported as 25% and the “treated site lighter in skin color” value (hyperpigmented dark skin; [5]) is reported as 25%. For the same molecule, the “treated site lighter in skin color” value (hyperpigmented dark skin; 5% solution once every other day with occlusion, after ten days) was 50%, the inhibition in vivo at 5 % ([1]; 168 h) was 75% and the inhibition in vivo at 5 % ([1]; 504 h) was 100%.

For O=P(O)(O)CNCCc1ccc(O)cc1 [N-(phosphonomethyl)-tyramine], the inhibition in vivo at 5 % (chronic plaque psoriasis; [4]) was 50% and the inhibition in vivo at 5 % ([1]; 168 h, 5% solution once every other day under occlusion, after one week) was 75%.

With O=C(O)CC[C@H](NCP(=O)(O)O)C(=O)O [N-(phosphonomethyl)-L-glutamic acid] the inhibition in vivo at 8 % (chronic plaque psoriasis; 336 h, 8% cream twice daily, end of two weeks) was 50%.

In the case of NCC(=O)NCP(=O)(O)O [N-(phosphonomethyl)-glycinamide], the inhibition in vivo at 8 % (chronic plaque psoriasis; 504 h) is reported as 90%, the “treated site lighter in skin color” value (hyperpigmented dark skin; [5]) is reported as 25% and the “treated site lighter in skin color” value (hyperpigmented dark skin; [3]) is reported as 50%. It also gave an inhibition in vivo at 5 % ([1]; 168 h) of 75% and an inhibition in vivo at 5 % ([1]; 504 h) of 100%.

O=C(O)[C@H](NCP(=O)(O)O)c1ccc(O)cc1 [N-(phosphonomethyl)-D-4-hydroxyphenylglycine] showed an inhibition in vivo at 10 % (chronic plaque psoriasis; 336 h, 10% cream twice daily, end of two weeks) of 70%.

In the case of CN(CC(=O)O)C(=N)NCP(=O)(O)O [N-(phosphonomethyl)-creatine], the “time the treated skin did not itch” value (itchy eczema; 7% cream) is reported as 8 h, the “time until itch disappeared” value (itchy eczema; 7% cream) is reported as “within a few minutes” and the “therapeutic evaluation, effective” value (itchy eczema; 7% cream) is reported as 100%. The inhibition in vivo at 5 % (chronic plaque psoriasis; 336 h) was 50%, the “treated site lighter in skin color” value (hyperpigmented dark skin; [5]) was 25% and the “treated site lighter in skin color” value (hyperpigmented dark skin; [3]) was 75%. The inhibition in vivo at 5 % ([1]; 240 h) was 50% and the inhibition in vivo at 5 % ([1]; 336 h) was 100%.

O=C(O)[C@H](Cc1ccc(O)cc1)NCP(=O)(O)O [N-(phosphonomethyl)-L-tyrosine] was tested, and the inhibition in vivo at 5 % ([1]; 288 h, 5% cream twice daily, after 12 days) was 75%.

— patent publication US7776844B2, “N-(phosphonoalkyl)-amino acids, derivatives thereof and compositions and methods of use” (priority 2006, dated 2010)
